Results published in ChEMBL document CHEMBL1201862, “PubChem BioAssay data set” (2004).
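A five-concentration, 48-hour dose response in 96-well plates underlies each endpoint, interpolated linearly between surrounding concentrations. The concentration for 50% growth inhibition is given as GI50.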 Calls of active or inactive are those of the source. No stated cut-off is given here; in the data, active = GI50 up to about 1.1 µM and inactive = higher.

What was measured:
Test in all cases: growth of human tumour cells (NCI), 48 h
[1] = test system: 786-0
[2] = test system: BT-549
[3] = test system: DU-145
[4] = test system: EKVX
[5] = test system: HL-60
[6] = test system: HOP-92
[7] = test system: KM12
[8] = test system: MDA-MB-231
[9] = test system: MOLT-4
[10] = test system: Malme-3M
[11] = test system: NCI-H226
[12] = test system: NCI-H522
[13] = test system: NCI/ADR-RES
[14] = test system: OVCAR-3
[15] = test system: SF-295
[16] = test system: SK-MEL-5
[17] = test system: SN12C
[18] = test system: UACC-257
[19] = test system: TK-10

SMILES	GI50 [1]	GI50 [2]	GI50 [3]	GI50 [4]	GI50 [5]	GI50 [6]	GI50 [7]	GI50 [8]	GI50 [9]	GI50 [10]	GI50 [11]	GI50 [12]	GI50 [13]	GI50 [14]	GI50 [15]	GI50 [16]	GI50 [17]	GI50 [18]	GI50 [19]
Cc1cccc(C(C)(C)C)c1NC(=O)/C(Cc1nc2ccc([N+](=O)[O-])cc2nc1O)=N\NC(=O)C[N+](C)(C)C	> 100 µM (inactive)	38.5 µM (inactive)	> 100 µM (inactive)	> 100 µM (inactive)	> 100 µM (inactive)	47.2 µM (inactive)	47.1 µM (inactive)	> 100 µM (inactive)	38.5 µM (inactive)	> 100 µM (inactive)	> 100 µM (inactive)	17.4 µM (inactive)	60.5 µM (inactive)	52 µM (inactive)	> 100 µM (inactive)	> 100 µM (inactive)	> 100 µM (inactive)	> 100 µM (inactive)	–
CCNC(C)(C)C(SS)c1ccc(Br)cc1 (stereo not given)	21.3 µM (inactive)	> 100 µM (inactive)	> 100 µM (inactive)	> 100 µM (inactive)	21.9 µM (inactive)	> 100 µM (inactive)	> 100 µM (inactive)	> 100 µM (inactive)	21.1 µM (inactive)	> 100 µM (inactive)	> 100 µM (inactive)	18.4 µM (inactive)	> 100 µM (inactive)	46.6 µM (inactive)	> 100 µM (inactive)	91.4 µM (inactive)	32.6 µM (inactive)	28.3 µM (inactive)	53.3 µM (inactive)
COC(=O)/C=C1/OC(c2ccc(Br)cc2)=C(Br)C1=O	2.4 µM (inactive)	5.28 µM (inactive)	12.7 µM (inactive)	13.2 µM (inactive)	2.06 µM (inactive)	7.48 µM (inactive)	8.07 µM (inactive)	2.43 µM (inactive)	2.42 µM (inactive)	7.94 µM (inactive)	14.4 µM (inactive)	3.94 µM (inactive)	9.4 µM (inactive)	4.35 µM (inactive)	14.1 µM (inactive)	7.48 µM (inactive)	6.92 µM (inactive)	13.3 µM (inactive)	6.59 µM (inactive)
COc1ccccc1C1C2=C(COC2=O)OC(C)(C)Oc2cc3c(cc21)OCO3 (stereo not given)	3.83 µM (inactive)	> 10 µM (inactive)	3.57 µM (inactive)	3.56 µM (inactive)	1.35 µM (inactive)	8.65 µM (inactive)	1.11 µM (active)	2.86 µM (inactive)	3.82 µM (inactive)	3.89 µM (inactive)	10.3 µM (inactive)	1.99 µM (inactive)	3.18 µM (inactive)	2.73 µM (inactive)	2.67 µM (inactive)	3.36 µM (inactive)	5.48 µM (inactive)	6.81 µM (inactive)	1.69 µM (inactive)
CCOC(=O)C1=C(C)N(C)C23OC4(C(=O)OC)CC2c2ccccc2C1N3C4=O (stereo not given)	> 100 µM (inactive)	> 100 µM (inactive)	> 100 µM (inactive)	> 100 µM (inactive)	24.6 µM (inactive)	> 100 µM (inactive)	84.5 µM (inactive)	> 100 µM (inactive)	74.8 µM (inactive)	> 100 µM (inactive)	> 100 µM (inactive)	37.4 µM (inactive)	86.9 µM (inactive)	> 100 µM (inactive)	39.3 µM (inactive)	32.5 µM (inactive)	79.3 µM (inactive)	> 100 µM (inactive)	> 100 µM (inactive)
O=c1[nH]c2c(Nc3c4ccccc4nc4ccccc34)c([N+](=O)[O-])c(Nc3c4ccccc4nc4ccccc34)c([N+](=O)[O-])c2[nH]1	1.2 µM (inactive)	3.51 µM (inactive)	2.67 µM (inactive)	1.82 µM (inactive)	2.67 µM (inactive)	1.67 µM (inactive)	2.14 µM (inactive)	2.06 µM (inactive)	0.38 µM (active)	1.57 µM (inactive)	2.68 µM (inactive)	1.09 µM (active)	1.01 µM (active)	2.15 µM (inactive)	2.41 µM (inactive)	2.11 µM (inactive)	1.45 µM (inactive)	2.41 µM (inactive)	2.11 µM (inactive)
O=C1c2ccccc2C(=O)N1CCCC(=O)n1cc(F)c(=O)[nH]c1=O	14.4 µM (inactive)	> 100 µM (inactive)	10.1 µM (inactive)	> 58.3 µM (inactive)	7.78 µM (inactive)	> 21.4 µM (inactive)	6.73 µM (inactive)	> 100 µM (inactive)	35.4 µM (inactive)	27.9 µM (inactive)	38.5 µM (inactive)	37.4 µM (inactive)	7.98 µM (inactive)	> 22.7 µM (inactive)	49.1 µM (inactive)	12.3 µM (inactive)	> 26.1 µM (inactive)	> 75.2 µM (inactive)	> 41.2 µM (inactive)
CC(=O)C(I(OS(=O)(=O)c1ccc(C)cc1)c1ccccc1)=P(c1ccccc1)(c1ccccc1)c1ccccc1	30.1 µM (inactive)	18.9 µM (inactive)	18.8 µM (inactive)	28 µM (inactive)	30.3 µM (inactive)	10.5 µM (inactive)	16.2 µM (inactive)	23.4 µM (inactive)	26.4 µM (inactive)	14.8 µM (inactive)	17.1 µM (inactive)	11.8 µM (inactive)	> 100 µM (inactive)	20.2 µM (inactive)	99.3 µM (inactive)	22.1 µM (inactive)	15.9 µM (inactive)	22.6 µM (inactive)	84.9 µM (inactive)
CN1CCc2c(sc3ncn(Nc4ccc(Cl)cc4)c(=N)c23)C1	> 100 µM (inactive)	> 100 µM (inactive)	> 100 µM (inactive)	> 100 µM (inactive)	> 100 µM (inactive)	> 100 µM (inactive)	> 100 µM (inactive)	> 100 µM (inactive)	> 100 µM (inactive)	> 100 µM (inactive)	> 100 µM (inactive)	> 100 µM (inactive)	> 100 µM (inactive)	> 100 µM (inactive)	> 100 µM (inactive)	> 100 µM (inactive)	> 100 µM (inactive)	> 100 µM (inactive)	> 100 µM (inactive)
COc1ccc(/N=N/c2ccc3oc(=O)c(C(=O)Nc4ccccc4)cc3c2)cc1	> 10 µM (inactive)	> 10 µM (inactive)	> 6.85 µM (inactive)	> 10 µM (inactive)	3.16 µM (inactive)	> 10 µM (inactive)	> 10 µM (inactive)	> 10 µM (inactive)	6.4 µM (inactive)	> 10 µM (inactive)	> 10 µM (inactive)	> 10 µM (inactive)	> 10 µM (inactive)	> 10 µM (inactive)	> 10 µM (inactive)	> 10 µM (inactive)	> 10 µM (inactive)	> 10 µM (inactive)	> 10 µM (inactive)
CC(OC(C)(C)C)[C@H](NC(=O)OC(C)(C)C)C(=O)O (stereo not given in full)	> 100 µM (inactive)	> 100 µM (inactive)	> 100 µM (inactive)	> 100 µM (inactive)	> 100 µM (inactive)	> 100 µM (inactive)	> 100 µM (inactive)	> 100 µM (inactive)	> 100 µM (inactive)	> 100 µM (inactive)	> 100 µM (inactive)	> 100 µM (inactive)	> 100 µM (inactive)	> 100 µM (inactive)	> 100 µM (inactive)	> 100 µM (inactive)	> 100 µM (inactive)	> 100 µM (inactive)	> 100 µM (inactive)
C[C@H]1[C@H](C)CC[C@]2(C(=O)OC3OC(CO)C(O)C(O)C3O)CC[C@]3(C)C(=CC[C@@H]4[C@@]5(C)C[C@@H](O)[C@@H]6OC(=O)c7cc(O)c(O)c(O)c7-c7c(cc(O)c(O)c7O)C(=O)OC[C@@]6(CO)[C@@H]5CC[C@]43C)[C@H]12 (stereo not given in full)	23.2 µM (inactive)	> 100 µM (inactive)	> 100 µM (inactive)	> 100 µM (inactive)	39.2 µM (inactive)	> 92.5 µM (inactive)	58.6 µM (inactive)	19.5 µM (inactive)	39.5 µM (inactive)	> 95.5 µM (inactive)	> 100 µM (inactive)	> 59.3 µM (inactive)	> 100 µM (inactive)	> 46.1 µM (inactive)	> 100 µM (inactive)	> 84.9 µM (inactive)	59.7 µM (inactive)	> 100 µM (inactive)	> 100 µM (inactive)
CO[C@H]1[C@@H](O)[C@H](O[C@@H]2C[C@H]3CC[C@@H]4[C@H](CC[C@]5(C)[C@@H](C6=CC(=O)OC6)CC[C@]45O)[C@@]3(C)[C@H](OC(C)=O)C2)O[C@@H](C)[C@H]1O	1.84 µM (inactive)	0.637 µM (active)	0.726 µM (active)	1.29 µM (inactive)	0.402 µM (active)	2.54 µM (inactive)	5.83 µM (inactive)	4.2 µM (inactive)	0.281 µM (active)	1.18 µM (inactive)	2.96 µM (inactive)	0.574 µM (active)	1.77 µM (inactive)	0.573 µM (active)	1.13 µM (inactive)	0.494 µM (active)	0.552 µM (active)	2.84 µM (inactive)	1.17 µM (inactive)
CC1=CC(=O)[C@@H](O)[C@]2(C)[C@H]3[C@@]4(O)OC[C@]35[C@H]([C@@H](C)[C@H]4O)[C@@H](OC(=O)C(C)(C)CO)C(=O)O[C@@H]5C[C@@H]12	0.16 µM (active)	0.0428 µM (active)	0.305 µM (active)	0.741 µM (active)	0.0243 µM (active)	0.0887 µM (active)	< 0.0271 µM (active)	0.363 µM (active)	0.0178 µM (active)	< 0.01 µM (active)	< 0.0216 µM (active)	< 0.0151 µM (active)	2.32 µM (inactive)	< 0.0231 µM (active)	0.229 µM (active)	< 0.0204 µM (active)	0.191 µM (active)	0.118 µM (active)	0.575 µM (active)
